Values belong to the molecule of their own block, whether it stands above or below them.
Assays:
human KDR kinase = target: T1, human KDR kinase (Homo sapiens, UniProt P35968); experiment: KDR Kinase Assay (LanthaScreen TR-FRET enzymatic assay); type: biochemical; conditions: 1.2 nM KDR, 92 μM ATP
T1 construct: purchased Carna 08-191
In short: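 Recombinant human KDR (1.2 nM) preincubated 15 min at room temperature with compound, then reacted with 3 μM FAM-P22 peptide and 92 μM ATP in 50 mM HEPES pH 7.5 for 1 h at 28° C. EDTA stop, then TR-FRET acceptor/donor ratio read; percent of 1% DMSO control fitted sigmoidally for IC50.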

BAF3-KIF5B-RET cells = target: T2, BAF3-KIF5B-RET cells (Homo sapiens, UniProt P07949); experiment: BAF3-KIF5B-RET Cell proliferation assay (CellTiter-Glo, 72 hours); type: cell-based; conditions: growth inhibition, read-out: BA/F3-KIF5B-RET Cellular activity
T2 construct: fused on or other part: P33176 (Kinesin-1 heavy chain)
In short: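 Cells seeded at 2,000/well in RPMI-1640 with 10% FBS and left 24 h at 37 °C, then exposed 72 h to nine compound levels (final 1 μM down to 0.00015 μM, 0.1% DMSO). CellTiter-Glo luminescence gave viability versus DMSO wells, from which IC50 was fitted.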

human RET kinase = target: T3, human RET kinase (Homo sapiens, UniProt P07949); experiment: RET Kinase Assay (LanthaScreen TR-FRET enzymatic assay); type: biochemical; conditions: 7 nM RET, 23 μM ATP
T3 construct: purchased Carna 08-159
In short: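 Human RET (7 nM) preincubated 15 min with compound in 50 mM HEPES pH 7.5, 0.0015% Brij-35, then reacted with 3 μM FAM-P2 peptide and 23 μM ATP for 1 h at 28° C.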

TT cells = experiment: TT Cell Proliferation Assay (WST-8, 8 days); type: cell-based; conditions: Homo sapiens, TT, 192 h, growth inhibition in TT cells, read-out: TT Cellular Activity
In short: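 TT cells, 6,000/well in RPMI-1640 with 10% FBS, attached 24 h, then exposed to compound at 5 μM down to 0.0005 μM final (0.5% DMSO) for 8 days at 37 °C. WST-8 added for 5 h, absorbance at 450 nm. IC50 calculated from the dilution series.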

T3 sequence (P07949 29-1114): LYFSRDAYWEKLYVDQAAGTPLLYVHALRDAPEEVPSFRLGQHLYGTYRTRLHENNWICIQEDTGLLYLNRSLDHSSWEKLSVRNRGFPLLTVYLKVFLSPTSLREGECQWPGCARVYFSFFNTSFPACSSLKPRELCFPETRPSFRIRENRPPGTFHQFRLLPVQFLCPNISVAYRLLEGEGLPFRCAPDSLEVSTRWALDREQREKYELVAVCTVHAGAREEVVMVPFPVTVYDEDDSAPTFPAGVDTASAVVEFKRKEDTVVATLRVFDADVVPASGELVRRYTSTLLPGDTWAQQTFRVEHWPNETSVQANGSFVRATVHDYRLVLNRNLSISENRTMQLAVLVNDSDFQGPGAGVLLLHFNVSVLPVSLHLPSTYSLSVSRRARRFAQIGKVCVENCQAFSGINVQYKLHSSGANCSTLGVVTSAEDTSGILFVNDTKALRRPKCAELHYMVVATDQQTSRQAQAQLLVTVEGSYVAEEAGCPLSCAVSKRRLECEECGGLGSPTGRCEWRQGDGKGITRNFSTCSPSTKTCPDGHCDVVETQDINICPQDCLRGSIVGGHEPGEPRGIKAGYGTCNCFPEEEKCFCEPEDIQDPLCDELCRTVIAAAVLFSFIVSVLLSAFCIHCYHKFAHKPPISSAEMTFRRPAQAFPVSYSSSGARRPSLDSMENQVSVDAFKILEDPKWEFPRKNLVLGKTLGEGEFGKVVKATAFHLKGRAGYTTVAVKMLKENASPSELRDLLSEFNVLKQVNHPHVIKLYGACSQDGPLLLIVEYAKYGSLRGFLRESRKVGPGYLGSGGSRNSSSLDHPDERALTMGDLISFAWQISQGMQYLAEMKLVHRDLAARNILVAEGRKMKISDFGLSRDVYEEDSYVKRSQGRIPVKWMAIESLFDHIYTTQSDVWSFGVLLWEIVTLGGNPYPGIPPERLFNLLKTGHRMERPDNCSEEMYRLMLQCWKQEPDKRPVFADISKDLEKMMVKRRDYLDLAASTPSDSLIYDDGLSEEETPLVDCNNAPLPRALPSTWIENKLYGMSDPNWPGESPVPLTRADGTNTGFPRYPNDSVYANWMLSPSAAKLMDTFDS
T2 sequence (P07949 whole entry, change not shown, the tested form may be a part): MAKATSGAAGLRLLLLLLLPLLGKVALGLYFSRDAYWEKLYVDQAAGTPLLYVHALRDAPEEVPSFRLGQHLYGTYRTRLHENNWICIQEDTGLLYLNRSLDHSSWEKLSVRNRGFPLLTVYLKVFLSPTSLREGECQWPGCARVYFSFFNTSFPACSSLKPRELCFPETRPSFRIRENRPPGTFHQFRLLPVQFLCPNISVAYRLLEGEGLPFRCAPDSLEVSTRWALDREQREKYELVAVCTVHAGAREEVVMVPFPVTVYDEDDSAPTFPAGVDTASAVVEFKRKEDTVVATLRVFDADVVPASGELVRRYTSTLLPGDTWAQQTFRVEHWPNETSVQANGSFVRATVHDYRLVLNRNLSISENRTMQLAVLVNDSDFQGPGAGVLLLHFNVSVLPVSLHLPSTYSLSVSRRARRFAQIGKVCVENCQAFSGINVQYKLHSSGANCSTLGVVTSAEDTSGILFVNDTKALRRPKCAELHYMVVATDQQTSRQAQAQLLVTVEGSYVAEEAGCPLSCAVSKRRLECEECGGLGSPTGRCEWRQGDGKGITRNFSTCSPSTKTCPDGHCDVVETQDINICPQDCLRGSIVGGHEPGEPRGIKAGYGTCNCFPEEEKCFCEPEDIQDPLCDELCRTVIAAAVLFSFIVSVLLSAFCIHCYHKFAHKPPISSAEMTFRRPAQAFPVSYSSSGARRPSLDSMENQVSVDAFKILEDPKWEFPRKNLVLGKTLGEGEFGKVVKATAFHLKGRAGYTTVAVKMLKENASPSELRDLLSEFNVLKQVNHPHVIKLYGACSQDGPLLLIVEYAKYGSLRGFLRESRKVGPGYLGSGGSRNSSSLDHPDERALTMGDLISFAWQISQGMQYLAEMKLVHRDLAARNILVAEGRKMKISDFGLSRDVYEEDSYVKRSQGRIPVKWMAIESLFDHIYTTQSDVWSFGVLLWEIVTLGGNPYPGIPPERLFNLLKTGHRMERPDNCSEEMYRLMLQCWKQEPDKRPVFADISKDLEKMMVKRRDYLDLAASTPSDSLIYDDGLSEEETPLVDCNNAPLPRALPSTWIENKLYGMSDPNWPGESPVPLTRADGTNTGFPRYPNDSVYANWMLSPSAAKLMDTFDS
T1 sequence (P35968 20-1356): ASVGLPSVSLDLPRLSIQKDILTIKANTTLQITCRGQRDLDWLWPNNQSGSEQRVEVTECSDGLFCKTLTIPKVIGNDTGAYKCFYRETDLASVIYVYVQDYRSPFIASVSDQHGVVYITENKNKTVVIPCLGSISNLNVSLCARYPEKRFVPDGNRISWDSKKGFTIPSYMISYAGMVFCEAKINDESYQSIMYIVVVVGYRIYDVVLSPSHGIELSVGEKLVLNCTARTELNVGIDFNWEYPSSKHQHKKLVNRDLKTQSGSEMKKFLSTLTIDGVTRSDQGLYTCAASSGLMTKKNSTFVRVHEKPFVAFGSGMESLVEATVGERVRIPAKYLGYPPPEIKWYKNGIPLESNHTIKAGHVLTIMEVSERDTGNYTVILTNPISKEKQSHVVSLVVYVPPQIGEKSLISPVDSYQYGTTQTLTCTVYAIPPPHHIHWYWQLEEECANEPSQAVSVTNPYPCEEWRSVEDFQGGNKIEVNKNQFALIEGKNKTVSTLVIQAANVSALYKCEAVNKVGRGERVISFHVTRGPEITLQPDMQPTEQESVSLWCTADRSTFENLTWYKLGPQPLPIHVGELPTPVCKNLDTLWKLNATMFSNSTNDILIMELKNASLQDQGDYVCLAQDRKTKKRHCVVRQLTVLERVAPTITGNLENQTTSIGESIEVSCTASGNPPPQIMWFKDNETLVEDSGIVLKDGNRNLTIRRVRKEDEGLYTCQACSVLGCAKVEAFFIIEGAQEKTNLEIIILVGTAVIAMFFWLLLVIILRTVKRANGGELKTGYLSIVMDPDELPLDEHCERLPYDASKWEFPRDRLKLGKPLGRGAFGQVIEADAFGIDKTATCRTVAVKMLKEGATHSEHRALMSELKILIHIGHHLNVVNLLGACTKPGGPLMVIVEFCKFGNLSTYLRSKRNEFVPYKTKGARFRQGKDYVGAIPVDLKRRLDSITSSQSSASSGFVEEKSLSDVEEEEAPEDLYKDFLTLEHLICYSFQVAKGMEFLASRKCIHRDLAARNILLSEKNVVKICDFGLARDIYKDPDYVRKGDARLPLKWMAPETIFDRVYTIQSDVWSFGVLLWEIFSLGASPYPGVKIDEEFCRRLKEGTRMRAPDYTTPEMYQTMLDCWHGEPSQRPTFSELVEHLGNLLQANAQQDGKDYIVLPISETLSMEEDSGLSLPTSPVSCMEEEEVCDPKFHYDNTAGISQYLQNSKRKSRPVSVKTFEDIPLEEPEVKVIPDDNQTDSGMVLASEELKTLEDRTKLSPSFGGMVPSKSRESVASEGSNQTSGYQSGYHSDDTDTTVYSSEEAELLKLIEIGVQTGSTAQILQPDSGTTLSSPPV

Structure (SMILES): Cn1cc(-c2cc(-c3ccc(N4C5CC6CC4CC(C(=O)Nc4ncccc4Cl)(C6)C5)nc3)c3c(C#N)cnn3c2)cn1 [Example 90, (1R,3S,5s,7s)-N-(3-chloropyridin-2-yl)-2-(5-(3-cyano-6-(1-methyl-1H-pyrazol-4-yl)pyrazolo[1,5-a]pyridin-4-yl)pyridin-2-yl)-2-azaadamantane-5-carboxamide]
IC50 (human KDR kinase): ≤ 10 nM
GI50 (BAF3-KIF5B-RET cells): ≤ 10 nM
IC50 (human RET kinase): ≤ 10 nM
IC50 (TT cells): ≤ 10 nM

Structure (SMILES): CCOc1cc(-c2ccc(N3C4CC5CC3CC(NC(=O)c3ncccc3Cl)(C5)C4)nc2)c2c(C#N)cnn2c1 [Example 136, 3-chloro-N-((1R,3S,5s,7s)-2-(5-(3-cyano-6-ethoxypyrazolo[1,5-a]pyridin-4-yl)pyridin-2-yl)-2-azaadamantan-5-yl)picolinamide]
IC50 (human KDR kinase): 10 to 50 nM
GI50 (BAF3-KIF5B-RET cells): ≤ 10 nM
IC50 (human RET kinase): ≤ 10 nM
IC50 (TT cells): ≤ 10 nM

Structure (SMILES): Cn1cc(-c2cc(-c3ccc(N4C5CC6CC4CC(N)(C6)C5)nc3)c3c(C#N)cnn3c2)cn1 [Example 181, 4-(6-((1R,3S,5s,7s)-5-amino-2-azaadamantan-2-yl)pyridin-3-yl)-6-(1-methyl-1H-pyrazol-4-yl)pyrazolo[1,5-a]pyridine-3-carbonitrile]
IC50 (human KDR kinase): ≤ 10 nM
GI50 (BAF3-KIF5B-RET cells): 10 to 50 nM
IC50 (human RET kinase): ≤ 10 nM
IC50 (TT cells): ≤ 10 nM

Structure (SMILES): CC(C)(O)COc1cc(-c2ccc(N3C[C@@H]4C[C@@](C)(NC(=O)c5ncccc5Cl)C[C@@H]4C3)nc2)c2c(C#N)cnn2c1 [Example 54, 3-chloro-N-((3aR,5s,6aS)-2-(5-(3-cyano-6-(2-hydroxy-2-methylpropoxy)pyrazolo[1,5-a]pyridin-4-yl)pyridin-2-yl)-5-methyloctahydro-cyclopenta[c]pyrrol-5-yl)picolinamide]
IC50 (human KDR kinase): > 100 nM
GI50 (BAF3-KIF5B-RET cells): 10 to 50 nM
IC50 (human RET kinase): ≤ 10 nM
IC50 (TT cells): 10 to 50 nM

Structure (SMILES): Cn1cc(-c2cc(-c3ccc(N4C[C@@H]5CN(S(=O)(=O)c6c(F)cccc6Cl)C[C@@H]5C4)nc3)c3c(C#N)cnn3c2)cn1 [Example 11, 4-(6-((3aR,6aS)-5-(2-chloro-6-fluorophenylsulfonyl)hexahydropyrrolo[3,4-c]pyrrol-2(1H)-yl)pyridin-3-yl)-6-(1-methyl-1H-pyrazol-4-yl)pyrazolo[1,5-a]pyridine-3-carbonitrile]
IC50 (human KDR kinase): ≤ 10 nM
GI50 (BAF3-KIF5B-RET cells): ≤ 10 nM
IC50 (human RET kinase): ≤ 10 nM
IC50 (TT cells): ≤ 10 nM

Structure (SMILES): C[C@@]1(NC(=O)c2ncccc2Cl)C[C@H]2CN(c3ccc(-c4cc(OCC5CNCCO5)cn5ncc(C#N)c45)cn3)C[C@H]2C1 (stereo partly drawn) [Example 53]
IC50 (human KDR kinase): 10 to 50 nM
GI50 (BAF3-KIF5B-RET cells): ≤ 10 nM
IC50 (human RET kinase): ≤ 10 nM
IC50 (TT cells): ≤ 10 nM

Structure (SMILES): Cn1ccc(-c2cc(-c3cnc(N4C[C@@H]5C[C@@](C)(NC(=O)c6ncccc6Cl)C[C@@H]5C4)cn3)c3c(C#N)cnn3c2)n1 [Example 70, 3-chloro-N-((3aR,5s,6aS)-2-(5-(3-cyano-6-(1-methyl-1H-pyrazol-3-yl)pyrazolo[1,5-a]pyridin-4-yl)pyrazin-2-yl)-5-methyloctahydrocyclopenta[c]pyrrol-5-yl)picolinamide]
IC50 (human KDR kinase): 10 to 50 nM
GI50 (BAF3-KIF5B-RET cells): ≤ 10 nM
IC50 (human RET kinase): ≤ 10 nM
IC50 (TT cells): 10 to 50 nM

Structure (SMILES): CC(C)(O)COc1cc(-c2ccc(N3C[C@H]4CN(C(=O)c5c(F)cccc5Cl)C[C@H]4C3)nc2)c2c(C#N)cnn2c1 [Example 9, 4-(6-((3aR,6aS)-5-(2-chloro-6-fluorobenzoyl)hexahydropyrrolo[3,4-c]pyrrol-2(1H)-yl)pyridin-3-yl)-6-(2-hydroxy-2-methylpropoxy)pyrazolo[1,5-a]pyridine-3-carbonitrile]
IC50 (human KDR kinase): 50 to 100 nM
GI50 (BAF3-KIF5B-RET cells): 10 to 50 nM
IC50 (human RET kinase): ≤ 10 nM
IC50 (TT cells): ≤ 10 nM

Second part, led by results:

IC50 (human KDR kinase): 10 to 50 nM
GI50 (BAF3-KIF5B-RET cells): ≤ 10 nM
IC50 (human RET kinase): ≤ 10 nM
Structure (SMILES): Cn1ccc(-c2cc(-c3ccc(N4C[C@@H]5C[C@@](C)(NC(=O)c6ncccc6Cl)C[C@@H]5C4)nc3)c3c(C#N)cnn3c2)n1 [Example 56, 3-chloro-N-((3aR,5s,6aS)-2-(5-(3-cyano-6-(1-methyl-1H-pyrazol-3-yl)pyrazolo[1,5-a]pyridin-4-yl)pyridin-2-yl)-5-methyloctahydro-cyclopenta[c]pyrrol-5-yl)picolinamide]
IC50 (TT cells): ≤ 10 nM

IC50 (human KDR kinase): 10 to 50 nM
GI50 (BAF3-KIF5B-RET cells): 10 to 50 nM
IC50 (human RET kinase): ≤ 10 nM
Structure (SMILES): Cn1cc(-c2cc(-c3ccc(N4C[C@@H]5[C@H](C4)[C@H]5NC(=O)c4ncccc4Cl)nc3)c3c(C#N)cnn3c2)cn1 [Example 20, 3-chloro-N-((1R,5S,6s)-3-(5-(3-cyano-6-(1-methyl-1H-pyrazol-4-yl)pyrazolo[1,5-a]pyridin-4-yl)pyridin-2-yl)-3-azabicyclo[3.1.0]hexan-6-yl)picolinamide]
IC50 (TT cells): 10 to 50 nM

IC50 (human KDR kinase): 10 to 50 nM
GI50 (BAF3-KIF5B-RET cells): ≤ 10 nM
IC50 (human RET kinase): ≤ 10 nM
Structure (SMILES): Cn1cc(-c2cc(-c3ccc(N4C[C@H]5CN(C(=O)c6ncccc6Cl)C[C@H]5C4)nc3)c3c(C#N)cnn3c2)cn1 [Example 4, 4-(6-((3aR,6aS)-5-(3-chloropicolinoyl)hexahydropyrrolo[3,4-c]pyrrol-2(1H)-yl)pyridin-3-yl)-6-(1-methyl-1H-pyrazol-4-yl)pyrazolo[1,5-a]pyridine-3-carbonitrile]
IC50 (TT cells): ≤ 10 nM

IC50 (human KDR kinase): ≤ 10 nM
GI50 (BAF3-KIF5B-RET cells): ≤ 10 nM
IC50 (human RET kinase): ≤ 10 nM
Structure (SMILES): Cn1cc(-c2cc(-c3ccc(N4C[C@H]5CN(C(=O)c6c(F)cccc6Cl)C[C@H]5C4)nc3)c3c(C#N)cnn3c2)cn1 [Example 5, 4-(6-((3aR,6aS)-5-(2-chloro-6-fluorobenzoyl)hexahydropyrrolo[3,4-c]pyrrol-2(1H)-yl)pyridin-3-yl)-6-(1-methyl-1H-pyrazol-4-yl)pyrazolo[1,5-a]pyridine-3-carbonitrile]
IC50 (TT cells): ≤ 10 nM

From patent US20220220128A1, “HETEROCYCLIC COMPOUNDS AS KINASE INHIBITORS, COMPOSITIONS COMPRISING THE HETEROCYCLIC COMPOUND, AND METHODS OF USE THEREOF” (JS Innopharm (Shanghai) Ltd, priority 2019, published 2022)
